What follows are compounds tested against T1, F508del (Homo sapiens, UniProt P13569, DEL508-508) (assay: Protocol 1: membrane potential optical assay (FLIPR III, voltage sensing dye), identification of potentiator compounds). Conditions: Table 3, compounds of Table 1.
T1 construct: expressed in transfected cells
Format: cell-based
Method in brief: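 Gating potentiation is read as a membrane-potential fluorescence change (FLIPR III, voltage-sensing dye) after one forskolin addition under a Cl− gradient, with gluconate replacing chloride, pH 7.4. Cells are F508del-expressing NIH3T3 mouse fibroblasts held 24 h at 27 °C and exposed to compound before dye loading.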

T1 sequence (P13569 with tags, fused parts or gaps DEL508-508): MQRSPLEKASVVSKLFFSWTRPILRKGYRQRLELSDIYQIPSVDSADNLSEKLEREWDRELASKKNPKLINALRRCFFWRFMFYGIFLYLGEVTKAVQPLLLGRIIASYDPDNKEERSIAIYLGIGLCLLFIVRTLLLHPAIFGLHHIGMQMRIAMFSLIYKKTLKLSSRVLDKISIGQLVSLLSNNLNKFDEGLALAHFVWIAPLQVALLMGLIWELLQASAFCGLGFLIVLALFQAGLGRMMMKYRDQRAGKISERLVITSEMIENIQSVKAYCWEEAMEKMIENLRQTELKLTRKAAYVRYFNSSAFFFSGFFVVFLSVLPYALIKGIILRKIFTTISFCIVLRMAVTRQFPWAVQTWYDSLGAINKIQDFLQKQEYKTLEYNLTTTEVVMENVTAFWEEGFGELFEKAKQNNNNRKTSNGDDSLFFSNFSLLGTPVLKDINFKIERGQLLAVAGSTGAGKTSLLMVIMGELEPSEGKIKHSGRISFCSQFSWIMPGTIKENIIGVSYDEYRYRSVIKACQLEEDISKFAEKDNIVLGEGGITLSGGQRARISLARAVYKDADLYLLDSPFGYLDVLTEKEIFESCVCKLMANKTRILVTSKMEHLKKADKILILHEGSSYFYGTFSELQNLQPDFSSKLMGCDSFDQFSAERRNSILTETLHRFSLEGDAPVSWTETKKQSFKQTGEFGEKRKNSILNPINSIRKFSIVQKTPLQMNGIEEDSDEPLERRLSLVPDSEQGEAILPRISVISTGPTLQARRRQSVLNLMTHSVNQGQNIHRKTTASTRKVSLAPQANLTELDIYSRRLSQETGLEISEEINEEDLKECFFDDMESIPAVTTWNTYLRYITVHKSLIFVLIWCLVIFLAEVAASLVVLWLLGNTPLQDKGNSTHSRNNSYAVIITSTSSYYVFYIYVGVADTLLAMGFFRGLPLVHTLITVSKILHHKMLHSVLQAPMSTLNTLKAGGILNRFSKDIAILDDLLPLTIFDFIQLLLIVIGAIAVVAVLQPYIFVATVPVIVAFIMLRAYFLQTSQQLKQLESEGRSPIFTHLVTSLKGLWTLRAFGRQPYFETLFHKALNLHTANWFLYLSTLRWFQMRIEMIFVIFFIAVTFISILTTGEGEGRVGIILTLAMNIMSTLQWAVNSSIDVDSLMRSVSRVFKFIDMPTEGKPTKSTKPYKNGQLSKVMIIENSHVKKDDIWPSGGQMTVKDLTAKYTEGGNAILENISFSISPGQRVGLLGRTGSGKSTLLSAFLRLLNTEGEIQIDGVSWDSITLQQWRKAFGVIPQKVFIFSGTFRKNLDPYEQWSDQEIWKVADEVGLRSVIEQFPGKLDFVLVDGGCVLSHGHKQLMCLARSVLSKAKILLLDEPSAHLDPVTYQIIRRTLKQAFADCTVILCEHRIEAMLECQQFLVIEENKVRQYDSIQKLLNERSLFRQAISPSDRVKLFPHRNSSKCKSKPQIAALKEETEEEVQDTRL

| EC30 | SMILES |
| --- | --- |
| ++ (“++” means between 3 uM and 10 uM) | CC1CN(c2nc(C(C)(C)C)c(C3=CCC(C(=O)O)CC3)cc2C(=O)NS(=O)(=O)c2cccc(N)n2)C(C)(C)C1 (stereo not drawn) [Compound 1381, 4-[5-[(6-amino-2-pyridyl)sulfonylcarbamoyl]-2-tert-butyl-6-(2,2,4-trimethylpyrrolidin-1-yl)-3-pyridyl]cyclohex-3-ene-1-carboxylic acid] |
| + (“+” means greater than 10 uM) | CC1CN(c2nc(C(C)(C)C)c(C3=CCN(C)CC3)cc2C(=O)NS(=O)(=O)c2cccc(N)n2)C(C)(C)C1 (stereo not drawn) [Compound 1382, N-[(6-amino-2-pyridyl)sulfonyl]-6-tert-butyl-5-(1-methyl-3,6-dihydro-2H-pyridin-4-yl)-2-(2,2,4-trimethylpyrrolidin-1-yl)pyridine-3-carboxamide] |
| +++ (“+++” means <3 uM) | CCN(CC)c1ccc(C)c(-c2ccc(C(=O)NS(=O)(=O)c3cccc(N)n3)c(N3CC(C)CC3(C)C)n2)n1 (stereo not drawn) [Compound 1383, N-[(6-amino-2-pyridyl)sulfonyl]-6-[6-(diethylamino)-3-methyl-2-pyridyl]-2-(2,2,4-trimethylpyrrolidin-1-yl)pyridine-3-carboxamide] |
| +++ (“+++” means <3 uM) | CC1CN(c2ncc(-c3ccccc3)cc2C(=O)NS(=O)(=O)c2cccc(N)n2)C(C)(C)C1 (stereo not drawn) [Compound 1384, N-[(6-amino-2-pyridyl)sulfonyl]-5-phenyl-2-(2,2,4-trimethylpyrrolidin-1-yl)pyridine-3-carboxamide] |
| +++ (“+++” means <3 uM) | CC(C)=C(C)c1ccc(C(=O)NS(=O)(=O)c2cccc(N)n2)c(Oc2c(C)cc(C)cc2C)n1 [Compound 1390, N-[(6-amino-2-pyridyl)sulfonyl]-6-(1,2-dimethylprop-1-enyl)-2-(2,4,6-trimethylphenoxy)pyridine-3-carboxamide] |
| +++ (“+++” means <3 uM) | CCOc1cccc2c1CN(Cc1c(C)cccc1F)C2(C)C(=O)NS(=O)(=O)c1cccc(N)n1 (stereo not drawn) [Compound 1392, N-[(6-amino-2-pyridyl)sulfonyl]-4-ethoxy-2-[(2-fluoro-6-methyl-phenyl)methyl]-1-methyl-isoindoline-1-carboxamide] |
| +++ (“+++” means <3 uM) | CCOc1cccc2c1CN(Cc1c(C)cc(C)cc1C)C2(C)C(=O)NS(=O)(=O)c1ccc2cc[nH]c2c1 (stereo not drawn) [Compound 1393, 4-ethoxy-N-(1H-indol-6-ylsulfonyl)-1-methyl-2-[(2,4,6-trimethylphenyl)methyl]isoindoline-1-carboxamide] |
| +++ (“+++” means <3 uM) | CCOc1cccc2c1CN(Cc1c(C)cc(C)cc1C)C2(C)C(=O)NS(=O)(=O)c1ccc(F)c(N)c1 (stereo not drawn) [Compound 1394, N-(3-amino-4-fluoro-phenyl)sulfonyl-4-ethoxy-1-methyl-2-[(2,4,6-trimethylphenyl)methyl]isoindoline-1-carboxamide] |
| +++ (“+++” means <3 uM) | CCC(CC)Nc1ccc(-c2ccc(C(=O)NS(=O)(=O)c3cccc(N)n3)c(N3[C@H](C)CC[C@@H]3C)n2)cn1 [Compound 1397, N-[(6-amino-2-pyridyl)sulfonyl]-2-[(2R,5S)-2,5-dimethylpyrrolidin-1-yl]-6-[6-(1-ethylpropylamino)-3-pyridyl]pyridine-3-carboxamide] |
| ++ (“++” means between 3 uM and 10 uM) | CC(C)CNc1ccc(-c2ccc(C(=O)NS(=O)(=O)c3cccc(N)n3)c(N3[C@H](C)CC[C@@H]3C)n2)cn1 [Compound 1398, N-[(6-amino-2-pyridyl)sulfonyl]-2-[(2S,5R)-2,5-dimethylpyrrolidin-1-yl]-6-[6-(isobutylamino)-3-pyridyl]pyridine-3-carboxamide] |
| +++ (“+++” means <3 uM) | CC(C)[C@H](C)Nc1ccc(-c2ccc(C(=O)NS(=O)(=O)c3cccc(N)n3)c(N3[C@H](C)CC[C@@H]3C)n2)cn1 [Compound 1399, N-[(6-amino-2-pyridyl)sulfonyl]-6-[6-[[(1 S)-1,2-dimethylpropyl]amino]-3-pyridyl]-2-[(2S,5R)-2,5-dimethylpyrrolidin-1-yl]pyridine-3-carboxamide] |
| +++ (“+++” means <3 uM) | Cc1cc(C)c(Oc2nc(C3=CCC(C(F)(F)F)CC3)ccc2C(=O)NS(=O)(=O)c2cccc(N)n2)c(C)c1 (stereo not drawn) [Compound 1402, N-[(6-amino-2-pyridyl)sulfonyl]-6-[4-(trifluoromethyl)cyclohexen-1-yl]-2-(2,4,6-trimethylphenoxy)pyridine-3-carboxamide] |
| +++ (“+++” means <3 uM) | CCOc1cccc2c1CN(Cc1c(C)cc(C)cc1C)C2(C)C(=O)NS(=O)(=O)c1cccc(F)c1OC (stereo not drawn) [Compound 1403, 4-ethoxy-N-(3-fluoro-2-methoxy-phenyl)sulfonyl-1-methyl-2-[(2,4,6-trimethylphenyl)methyl]isoindoline-1-carboxamide] |
| +++ (“+++” means <3 uM) | CC1CN(c2nc(C(C)(C)C)c(C3=CCN(C(=O)OCc4ccccc4)CC3)cc2C(=O)NS(=O)(=O)c2cccc(N)n2)C(C)(C)C1 (stereo not drawn) [Compound 1404, benzyl 4-[5-[(6-amino-2-pyridyl)sulfonylcarbamoyl]-2-tert-butyl-6-(2,2,4-trimethylpyrrolidin-1-yl)-3-pyridyl]-3,6-dihydro-2H-pyridine-1-carboxylate] |
| +++ (“+++” means <3 uM) | CC1CN(c2nc(C(C)(C)C)c(C3=CC(=O)CC(C)(C)C3)cc2C(=O)NS(=O)(=O)c2cccc(N)n2)C(C)(C)C1 (stereo not drawn) [Compound 1405, N-[(6-amino-2-pyridyl)sulfonyl]-6-tert-butyl-5-(5,5-dimethyl-3-oxo-cyclohexen-1-yl)-2-(2,2,4-trimethylpyrrolidin-1-yl)pyridine-3-carboxamide] |
| +++ (“+++” means <3 uM) | CCOc1cccc2c1CN(Cc1ccccc1C)C2(C)C(=O)NS(=O)(=O)c1cccc(N)n1 (stereo not drawn) [Compound 1408, N-[(6-amino-2-pyridyl)sulfonyl]-4-ethoxy-1-methyl-2-(o-tolylmethyl)isoindoline-1-carboxamide] |

More lines, now with the values behind:

| SMILES | EC30 |
| --- | --- |
| CC(C)COc1cc(F)cc(-c2nc(N3C[C@H](C)CC3(C)C)ccc2C(=O)NS(=O)(=O)c2cccc(N)n2)c1 [Compound 1385, N-[(6-amino-2-pyridyl)sulfonyl]-2-(3-fluoro-5-isobutoxy-phenyl)-6-[(4R)-2,2,4-trimethylpyrrolidin-1-yl]pyridine-3-carboxamide] | +++ (“+++” means <3 uM) |
| C[C@@H]1CN(c2nc3c(cc2C(=O)NS(=O)(=O)c2cccc(N)n2)CCC3)C(C)(C)C1 [Compound 1386, N-[(6-amino-2-pyridyl)sulfonyl]-2-[(4S)-2,2,4-trimethylpyrrolidin-1-yl]-6,7-dihydro-5H-cyclopenta[b]pyridine-3-carboxamide] | ++ (“++” means between 3 uM and 10 uM) |
| CC(C)COc1cc(F)cc(-c2ccc(C(=O)NS(=O)(=O)c3cccc(N)n3)c(-n3nc(C(C)C)cc3C(C)C)n2)c1 [Compound 1387, N-[(6-amino-2-pyridyl)sulfonyl]-2-(3,5-diisopropylpyrazol-1-yl)-6-(3-fluoro-5-isobutoxy-phenyl)pyridine-3-carboxamide] | +++ (“+++” means <3 uM) |
| CC1CN(c2nc(C(C)(C)C)c(C3=CC4CCC(C3)N4C(=O)OC(C)(C)C)cc2C(=O)NS(=O)(=O)c2cccc(N)n2)C(C)(C)C1 (stereo not drawn) [Compound 1388, tert-butyl 3-[5-[(6-amino-2-pyridyl)sulfonylcarbamoyl]-2-tert-butyl-6-(2,2,4-trimethylpyrrolidin-1-yl)-3-pyridyl]-8-azabicyclo[3.2.1]oct-3-ene-8-carboxylate] | +++ (“+++” means <3 uM) |
| Cc1cc(C)c(Oc2nc(C3=CCN(Cc4ccccc4)CC3)ccc2C(=O)NS(=O)(=O)c2cccc(N)n2)c(C)c1 [Compound 1389, N-[(6-amino-2-pyridyl)sulfonyl]-6-(1-benzyl-3,6-dihydro-2H-pyridin-4-yl)-2-(2,4,6-trimethylphenoxy)pyridine-3-carboxamide] | +++ (“+++” means <3 uM) |
| CC(=O)NC1CCN(S(=O)(=O)NC(=O)c2ccc(-c3cc(F)cc(OCC(C)C)c3)nc2N2CC(C)CC2(C)C)C1 (stereo not drawn) [Compound 1391, N-(3-acetamidopyrrolidin-1-yl)sulfonyl-6-(3-fluoro-5-isobutoxy-phenyl)-2-(2,2,4-trimethylpyrrolidin-1-yl)pyridine-3-carboxamide] | +++ (“+++” means <3 uM) |
| CC(C)COc1cc(F)cc(-c2ccc(C(=O)NS(=O)(=O)c3cccc(N)n3)c(OCC3CCCCC3)n2)c1 [Compound 1395, N-[(6-amino-2-pyridyl)sulfonyl]-2-(cyclohexylmethoxy)-6-(3-fluoro-5-isobutoxy-phenyl)pyridine-3-carboxamide] | +++ (“+++” means <3 uM) |
| CC(C)COc1cc(F)cc(-c2ccc(C(=O)NS(=O)(=O)c3ccccc3)c(N3C[C@H](C)CC3(C)C)n2)c1 [Compound 1396, N-(benzenesulfonyl)-6-(3-fluoro-5-isobutoxy-phenyl)-2-[(4R)-2,2,4-trimethylpyrrolidin-1-yl]pyridine-3-carboxamide] | +++ (“+++” means <3 uM) |
| [2H]C1([2H])[C@@H](C)CC(C)(C)N1c1nc(-c2cc(F)cc(OCC(C)C)c2)ccc1C(=O)NS(=O)(=O)c1cccc(N)n1 [Compound 1400, N-[(6-amino-2-pyridyl)sulfonyl]-2-[(3S)-2,2-dideuterio-3,5,5-trimethyl-pyrrolidin-1-yl]-6-(3-fluoro-5-isobutoxy-phenyl)pyridine-3-carboxamide] | +++ (“+++” means <3 uM) |
| CC(C)(C)c1ccc(C(=O)NS(=O)(=O)c2cccc(N)n2)c(N2CC3CC(C3)C2)n1 [Compound 1401, N-[(6-amino-2-pyridyl)sulfonyl]-2-(3-azabicyclo[3.1.1]heptan-3-yl)-6-tert-butyl-pyridine-3-carboxamide] | +++ (“+++” means <3 uM) |
| Cc1cc(OCC(C)C)nn1-c1ccc(C(=O)NS(=O)(=O)c2cccc(N)n2)c(N2C[C@@H](C)CC2(C)C)n1 [Compound 1407, N-[(6-amino-2-pyridyl)sulfonyl]-6-(3-isobutoxy-5-methyl-pyrazol-1-yl)-2-[(4S)-2,2,4-trimethylpyrrolidin-1-yl]pyridine-3-carboxamide] | +++ (“+++” means <3 uM) |

— patent US10758534B2 (Vertex Pharmaceuticals Incorporated, priority 2014, dated 2020)
